Source: US20260355180A1, “COMPOSITIONS AND METHODS FOR SPLICEOSOME-TARGETED THERAPIES” (Institute for Cancer Research d/b/a The Research Institute …, priority 2022, published 2026)
Entries after “also recorded” stand apart in the source; their conditions may differ.

Columns and labels:
RPPM631 cells = test: A-RNA and Z-NA accumulation in RPPM631 cells; type: cell-based, mouse; conditions: 25 nM PLAB
Description: Additionally, SF3B1 inhibition was directly compared to SF3B1 knockout in the mouse SCLC cell line RPPM631. RPPM631 cells were treated with 25 nM PLAB and analyzed for their accumulation of Z-NA and A-RNA. […] (FIG. 12) Next, SF3B1-KO RPPM631 cells were generated and analyzed using immunc-fluorescence technique.

H82 KO cells = test: CytoToxicity of PlaB in TNFR1-, TRADD-, FADD-, CASP8-KO H82 cells (trypan blue); type: cell-based; conditions: 2.5 nM PlaB, 18 hrs
From the text: […]: CytoToxicity analysis of PlaB in TNFR1-KO and TRADD-KO H82 cells […] and H446 cells (FIG. 16B). CytoToxicity analysis of PlaB in FADD-KO and CASP8-KO H82 cells (FIG. 16C) and H446 cells (FIG. 16D). EV refers to cells treated with an empty vector.
Since RIPK1 mediated apoptosis can be triggered by TNF110, TNFR1 and TRADD-KO SCLC cell lines are generated herein for subsequent studies. Here, we utilize CRISPR-Cas9 KO to effectively knockout TNFR1 and TRADD in SCLC cells. To confirm depletion of TNFR1 and TRADD proteins, cell lysates are collected and western blot analysis is performed. The following experiments are performed using the TNFR1 and TRADD-KO SCLC cells generated above.
H82 and H446 WT and TNFR1 and TRADD-KO cells generated above are treated with DMSO or 2.5 nM PlaB for 18 hrs. Then, the cells are counted using 0.4% trypan blue solution assessing total viable cells and the percent of cell survived with the H82 and H446 WT cells is compared. (FIG. 15A-15B) This allows us to confirm whether TNF is partially or fully responsible for PlaB-mediated cell death in SCLC cell lines.
Additionally, we analyzed the role played by FADD and CAPS8 in rescuing H82 and H446 cells from PlaB induced toxicity. Using the methods described above for the generation of TNFR1 and TRADD-KO cells, H82 and H446 FADD-KO cells and H82 and H446 CASP8-KO cells were generated. These cells were then treated with DMSO or 2.5 nM PlaB for 18 hrs and compared to WT H82 and H446 cells. […] (FIG. 15C and FIG. 15D)

MEF ΔZα cells = test: pMLKL western blot / necroptosis, MEF ΔZα; type: cell-based, mouse; conditions: 2.5 nM PlaB, 18 hours
Description: FIG. 5A-5E: SF3B1 perturbation upregulates A-RNA and Z-nucleic acids in MEFs. (FIG. 5A) 5 nM of PlaB induces A-RNA and Z-Nucleic acids in ΔZBP1 MEF cells. (FIG. 5B) Quantification of A-RNA and Z-Nucleic acids. […] Plots of signal intensity are mean±SEM, two-tailed unpaired Student's t test *p<0.05, ***p<0.001, ****p<0.0001. 18 hours of PlaB treatment for IF, WB and rescue experiments. IF: 5 nM PlaB, WB and rescue experiments: 2.5 nM PlaB.
Since induction of Z-nAs can result in ZBP1-dependent necroptosis, we analyzed induction of necroptosis in necroptotic competent MEFs using spliceosome inhibition. […] We also determined that MEFs ΔZBP1, WT, and Flag-ZBP1 cells treated with PlaB began dying within 24hours after treatment. With MEF Flag-ZBP1 cells showing only 20% survival after 24 hours (FIG. 16).

H446 SCLC cells [1] = test: Cell survival after PlaB treatment, H446; type: cell-based, human
Description: FIG. 2A) SCLC cell lines (H446 and H82) and immortalized fibroblasts (FC1010 and HS68) cell survival curves after 72 hours of PlaB treatment. FIG. 2B) RIPK1 depletion rescues H82 and H446 cell survival after 18 hours of PlaB treatment. FIG. 2C) Western blot showing RIPK1 protein depletion. Mean±SEM, Welch's t test *p<0.05, **p<0.01.
Cancer deregulates splicing^31,32, and we hypothesized that hyper-proliferative SCLCs are dependent on splicing machineries for increased tumorigenicity^90.

H446 cells = test: Immunofluorescence of A-RNA (J2) and Z-NA (Z22), H446; type: cell-based, human
From the text: FIG. 4A-4C: SF3B1 perturbation increases dsRNA and Z-nucleic acid levels in treated cells. […] (FIG. 4B) Quantification of A-RNA and Z-Nucleic acids. (FIG. 4C) Western blot showing induction of cleaved-PARP, pH2AX, and ZBP1, and the reduction of RIPK1 protein levels. Plots of signal intensity are mean±SEM, two-tailed unpaired Student's t test **p<0.01, ****p<0.0001.
Our observations led us to explore what caused the elevated IFN response. We used an immunofluorescence (IF) technique to determine if A-RNA was increased after PlaB treatment.

MEF cells = test: A-RNA and Z-NA in MEF after PlaB with or without nucleases; type: cell-based, mouse
Description: FIG. 11A-11B: Analysis of Z-NA and A-RNA sources. (FIG. 11A) […] A-Nucleic acid accumulation in MEF cells after treatment with PlaB with or without Dnasel, RnaseA, or Rnase H. (FIG. 11B) Quantification of A-RNA and Z-Nucleic acids in treated cells. MEF EV refers to MEF cells treated with an empty vector.
The increases in A-RNA and Z-NA was further analyzed in MEF cells. Cells were treated with PlaB alone, or in combination with dNasel (dsDNA), rNaseA(dsRNA at [high]), or […] (DNA/RNA hybrid). […] (FIG. 11A-11B).

H446 SCLC cells [2] = test: IFN response by rRT-qPCR, H446; type: cell-based, human; conditions: dose-dependent
From the text: (§1) FIG. 3A-3D: SF3B1 inhibition induces a potent IFN response and increases expression of IFN-regulated proteins. […] Mean±SEM, two-tailed unpaired Student's t test *p<0.05, **p<0.01, ***p<0.001, ****p<0.0001.
(§2) We also observed that SF3B1 inhibition triggers robust anti-tumor response and upregulates IFN-β, IFN-γ, and IFN-responsive genes by real-time reverse-transcription quantitative polymerase chain reaction (rRT-qPCR) in H446 and H82 cells (FIGS. 3A and 3B). […] These observations indicate that spliceosome inhibition is useful as a targeted therapy for SCLCs.

H446 SCLC cells [3] = test: Antigen (HLA-ABC) and PD-L1 expression, H446; type: cell-based, human; conditions: 48 hours of 0.5 nM PlaB
From the text: as §1, §2

[4] = PlaB and dNasel, rNaseA, or RnaseH

## CCC(O)C(C)C1OC1CC(C)C=CC=C(C)C1OC(=O)CC(O)CCC(C)(O)C(OC(C)=O)C=CC1C (centres unmarked) [PlaB, Pladienolide B]
RPPM631 cells
  A-RNA accumulation: increase
  Z-NA accumulation: increase
H82 KO cells; H82 CASP8-KO
  rescue from PlaB toxicity by CASP8-KO: effectively rescued
H82 KO cells; H82 FADD-KO
  rescue from PlaB toxicity by FADD-KO: effectively rescued
H82 KO cells; H82 TNFR1-KO
  rescue from PlaB toxicity by TNFR1-KO: effectively rescued
H82 KO cells; H82 TRADD-KO
  rescue from PlaB toxicity by TRADD-KO: effectively rescued
MEF ΔZα cells; MEF ΔZα
  pMLKL (necroptosis): not triggered
MEF ΔZα cells; MEF ΔZα mutant
  PlaB-mediated necroptosis: avoid PlaB-mediated necroptosis
H446 SCLC cells [1]; 72 hours of PlaB, H446
  cell survival: drastically reduces cell survival; also recorded: dramatically reduces SCLC cell survival
H446 SCLC cells [1]; nanomolar concentration of PlaB
  sensitivity to SF3B1 inhibition: particularly sensitive
H446 cells; 6 hours, mouse J2 antibody, H446
  A-RNA level: robust induction
H446 cells; 6 hours, rabbit Z22 antibody, H446
  Z-NA level: significant increase
H446 cells; low dose, J2 antibody
  accumulation of A-RNA: induces accumulation
H446 cells; low dose, Z22 antibody
  accumulation of Z-Nucleic acids: induces accumulation
MEF cells; PlaB alone
  A-RNAs and Z-nAs: increase in both A-RNAs and Z-nAs
MEF cells; [4]
  A-RNAs and Z-nAs: still showed an increase in A-RNAs and Z-nAs
  increase in A-RNAs relative to PlaB alone: not as robust as PlaB alone
H446 SCLC cells [2]
  IFN response: induces potent IFN response
H446 SCLC cells [3]
  PD-L1 expression: effectively upregulates
  antigen expression: effectively upregulates
